# Publication PMC7601674, “CoQ10 Deficient Endothelial Cell Culture Model for the Investigation of CoQ10 Blood–Brain Barrier Transport” (Journal of Clinical Medicine, 2020)
# B1: receptor-associated protein (protein, UniProt P30533 35-357, looked up)
# Alpha-2-macroglobulin …: YSREKNQPKPSPKRESGEEFRMEKLNQLWEKAQRLHLPPVRLAELHADLKIQERDELAWKKLKLDGLDEDGEKEARLIRNLNVILAKYGLDGKKDARQVTSNSLSGTQEDGLDDPRLEKLWHKAKTSGKFSGEELDKLWREFLHHKEKVHEYNVLLETLSRTEEIHENVISPSDLSDIKGSVLHSRHTELKEKLRSINQGLDRLRRVSHQGYSTEAEFEEPRVIDLWDLAQSANLTDKELEAFREELKHFEAKIEKHNHYQKQLEIAHEKLRHAESVGDGERVSRSREKHALLEGRTKELGYTVKKHLQDLSGRISRARHNEL
# How the values were obtained:
# [1] = tested on: bEnd.3 cells (mouse BBB cell line) monolayer; test: CoQ10 transport assay across bEnd.3 monolayer on Transwell filters (control or pABA treated); conditions: for A to B CoQ10 transport, % of control / Apical to Basal CoQ10 transport, % of control: BLT-1 10 µM, FPS-ZM1 1 µM; for A to B CoQ10 transport, % of control: verapamil 0.1 mM, added 2 h before, 60 min; for Apical to Basal CoQ10 transport, % of control: RAP 0.5 µM; for Effect on Basal to Apical transport of CoQ10: antioxidant 50 µM co-administered with CoQ10 10 µM; for Effect on B to A transport of CoQ10: pABA treated bEnd.3, antioxidant 50 µM
# Experimental: (§1) Unless stated, CoQ10 was pre-treated by incubation in serum at a concentration of 20 µM for 45 min at 37 °C, and added to assay buffer on either the Apical (blood facing) or Basal (brain facing) side of the cells on Transwell filters. The final concentration of CoQ10 used in the assays was 10 µM in serum (50% v/v). Cells were then incubated for 60 min on an orbital shaker (100 rpm) at 37 °C. Samples of the Apical (A) and Basal (B) media were then taken for analysis to calculate A to B (blood-to-brain) or B to A (brain-to-blood) Papp in cm/s, as previously described by Patabendige et al.. CoQ10 concentrations were determined using the LC-MS/MS method described above (Section 2.2).
# (§2) Inhibitors of transport were added to both Apical and Basal sides of the cells for 2 h prior to assay. Antioxidants were pre-incubated with CoQ10 in serum for 45 min prior to assay, and were present in the assay buffer. Compounds used were; SR-B1 inhibitor, blocker of lipid transport-1 (BLT-1; 10 µmol/L)
# (§3) As previously described, para-aminobenzoic acid (pABA) was used as a pharmacological reagent to induce CoQ10 deficiency. The mechanism of action is via competitive inhibition of polyprenyl-4-hydroxybenzoate transferase (Coq2p), a key enzyme in the later stages of the CoQ10 biosynthetic pathway. Following the method of Duberley et al., 1 mmol/L pABA was added to culture medium for 5 days prior to assay.
# [2] = tested on: PBEC cellular CoQ10 content; test: Cellular CoQ10 depletion by pABA, PBEC; assay type: cell-based, porcine
# Experimental: (§4) Final CoQ10 concentrations (nmol/L) were calculated as a ratio of CoQ10/CoQ10–[^2H9] peak areas, and quantified against the corresponding calibration curve, with appropriate correction for dilution. For intracellular determination of CoQ10 the concentration was divided by total protein (mg/mL) and expressed as pmol/mg (nmol/g) of protein.
# [3] = tested on: bEnd.3 cellular CoQ10 content; test: Cellular CoQ10 depletion by pABA, bEnd.3; assay type: cell-based, mouse
# Experimental: as §4
# bEND.3 cells = test: MTT cell viability assay; assay type: cell-based, mouse; conditions: pABA up to 1 mM, 5 days
# Experimental: Cell viability was determined using the MTT assay described by Mosmann. Cells were passaged onto 96-well plates, grown to confluence and washed with HBSS prior to the addition of 3-[4,5-dimethylthiazol-2-yl]-2,5-diphenyl tetrazolium bromide (MTT; 1 mg/mL) in DMEM (without phenol red). Cells were then incubated for 4 h at 37 °C, 5% CO2, after which the medium was removed, and the remaining formazan crystals dissolved in propan-2-ol (100 μL/well). The resulting purple solution was spectrophotometrically measured at 540 nm using a Multiskan Ascent plate reader with Ascent software (MTX LabSystems, USA).
# MRC complex I = test: Mitochondrial respiratory chain enzyme activity, complex I; assay type: cell-based, mouse
# Experimental: (§5) Activities of the mitochondrial respiratory chain enzymes; complex I, complex II-III and complex IV together with the mitochondrial marker enzyme, and citrate synthase (EC 2.3.3.1) were determined spectrophotometrically on a Uvikon XL spectrophotometer with LabPower software (Version 2.06S, Northstar Scientific Ltd., Potton, UK) according to the method previously described by Hargreaves et al.. Results were expressed as a ratio to citrate synthase activity, a validated biomarker of mitochondrial content, and were normalised against mg protein. Protein quantification was determined according to the Lowry method using BSA as a standard.
# MRC complex II-III = test: Mitochondrial respiratory chain enzyme activity, complex II-III; assay type: cell-based, mouse
# Experimental: as §5
# MRC complex IV = test: Mitochondrial respiratory chain enzyme activity, complex IV; assay type: cell-based, mouse; conditions: bEND.3, 1 mM pABA 5 days
# Experimental: as §5
# [4] = tested on: citrate synthase (EC 2.3.3.1); test: Citrate synthase activity; assay type: cell-based, mouse; conditions: bEND.3, 1 mM pABA 5 days
# Experimental: as §5
# [5] = tested on: PBEC tight junction integrity; test: Transendothelial electrical resistance (TEER) of PBEC monolayer; assay type: cell-based, porcine; conditions: PBEC after 5 days pABA (1 mM); control 856 ± 71; n = 6
# Experimental: (§6) Primary porcine brain endothelial cells (PBEC) were isolated and cultured as previously published. Briefly, cells were seeded at 10 × 10^4 cells/cm^2 on collagen and fibronectin-coated polycarbonate Transwell filters (Corning 0.4 µm pore size) in 12-well plates, and grown in low glucose DMEM (Sigma D5546) supplemented with bovine plasma-derived serum (10% v/v; BPDS, First Link UK), glutamine (2 mM), heparin (125 µg/mL), penicillin (100 U/mL) and streptomycin (100 µg/mL), at 37 °C in a 5% CO2 incubator. PBECs were grown in non-contact co-culture above primary rat astrocytes until confluent, then supplemented with hydrocortisone (550 nM), 8-4-chlorophenylthio-cAMP (250 µM) and RO-20-1724 (17.5 µM) in serum-free medium for a further 3 days. Before assays of CoQ10 transport, PBECs were separated from astrocytes by moving transwell filters to fresh culture plates.
# as §3
# [6] = tested on: claudin-5 tight junction protein in PBEC; test: Confocal microscopy of claudin-5; assay type: cell-based, porcine; conditions: PBEC after 5 days pABA (1 mM)
# Experimental: Cells for confocal microscopy were fixed in paraformaldehyde (4% w/v in PBS) for 45 min, washed with HBSS and stored in glycerol (70% v/v in PBS) until use. Cells were permeabilised with Triton-x 100 (0.1% v/v in PBS), incubated with anti-Claudin 5 Monoclonal Antibody (4C3C2) Alexa Fluor 488 (1 in 80 dilution in DAKO, overnight, 4 °C, Thermofisher) to visualise tight junctions. Samples were then mounted in Vectashield containing DAPI for nuclei staining. The Nikon A1 inverted confocal microscope was used with spectral detector and Eclipse Ti-E microscope at ×40 magnification to generate digital images, analysed using Fiji (ImageJ).
# [7] = parameters: method as in PMID 11259830; conditions: cited from earlier work
# bEnd.3 BBB model = conditions: cited from earlier work
# [8] = tested on: primary porcine brain endothelial cells (PBEC) monolayer; test: CoQ10 transport assay across PBEC monolayer on Transwell filters; conditions: PBEC; RAP 0.5 µM applied to the basal (brain side)
# Experimental: as §6, §1, §2
# [9] = pABA treated (1 mM; 5 days) bEnd.3
# [10] = bEND.3, 1 mM pABA 5 days, ratio to citrate synthase
molecule,measurement,setting,value
"CCCCCCC1CCCC1=NNC(N)=S (stereo not drawn) [BLT-1, blocker of lipid transport-1]",Effect on “net” transport of CoQ10,[1]; control bEnd.3,“net” −ve transport
same,"A to B CoQ10 transport, % of control",[1]; control bEnd.3,44 % of control
same,Effect on “net” transport of CoQ10,[1]; [9],no significant effect
same,"Apical to Basal CoQ10 transport, % of control",[1]; [9],no effect
Cc1c(C)c2c(c(C)c1O)CC[C@@](C)(CCC[C@H](C)CCC[C@H](C)CCCC(C)C)O2 [α-tocopherol],Effect on Basal to Apical transport of CoQ10,[1]; control bEnd.3,increased Basal to Apical transport of CoQ10
same,Effect on B to A transport of CoQ10,[1],enhanced B to A transport
"Nc1ccc(C(=O)O)cc1 [pABA, para-aminobenzoic acid]",Depletion of cellular CoQ10 relative to controls,"[2]; 1 mM pABA 5 days, n = 4",36%
same,"Cellular CoQ10, % of control",[2]; pABA 1 mmol/L 5 days,36 % of control
same,Depletion of cellular CoQ10 relative to controls,"[3]; bEnd.3, 1 mM pABA 5 days, n = 4",43%
same,"Cellular CoQ10, % of control","[3]; bEnd.3, pABA 1 mmol/L 5 days",57 % of control
same,Cell viability,bEND.3 cells,no change in cell viability
same,Decrease in MRC complex I activity,MRC complex I; [10],68%
same,"MRC complex I activity, % of control","MRC complex I; bEnd.3, pABA 1 mmol/L 5 days",32 % of control
same,Decrease in MRC complex II-III activity,MRC complex II-III; [10],72%
same,"MRC complexes II-III activity, % of control","MRC complex II-III; bEnd.3, pABA 1 mmol/L 5 days",28 % of control
same,"MRC complex IV activity, % of control",MRC complex IV,80 % of control
same,Citrate synthase activity,[4],no significant change
same,Transendothelial electrical resistance (TEER),[5],49 ± 9 Ω · cm^2
same,Claudin-5 localisation,[6],re-location of claudin-5 tight junction protein away from the cell membrane
COC1=C(OC)C(=O)C(CCCCCCCCCCO)=C(C)C1=O [idebenone],Direction of transport,[1],transport toward the brain side (A to B) greater than efflux to blood (B to A)
same,"Permeability (Papp) compared to CoQ10, A to B direction",[1],280 ×
same,"Permeability (Papp) compared to CoQ10, B to A direction",[1],150 ×
same,LogP,[7],less than 5
O=C(c1ccc(Cl)cc1)N(Cc1ccccc1)C1CCCCC1 [FPS-ZM1],Effect on “net” transport of CoQ10,[1]; control bEnd.3,“net” −ve transport
same,"A to B CoQ10 transport, % of control",[1]; control bEnd.3,50 % of control
same,Effect on “net” transport of CoQ10,[1]; [9],abolished “net” A to B transport
same,"Apical to Basal CoQ10 transport, % of control",[1]; [9],45 % of control
N#CC(C#N)=NNc1ccc(OC(F)(F)F)cc1 [FCCP],Permeability to FITC-dextran,bEnd.3 BBB model,doubled
C=C(C)[C@H]1Cc2c(ccc3c2O[C@@H]2COc4cc(OC)c(OC)cc4[C@@H]2C3=O)O1 [rotenone],Permeability to FITC-dextran,bEnd.3 BBB model,doubled
Cc1c(C)c2c(c(C)c1O)CCC(C)(C(=O)O)O2 (stereo not drawn) [Trolox],Effect on Basal to Apical transport of CoQ10,[1]; control bEnd.3,increased Basal to Apical transport of CoQ10
same,Effect on B to A transport of CoQ10,[1],enhanced B to A transport
CC[C@H]1/C=C/C=C/C[C@@H](C)[C@H](O)[C@@](C)(O)C(=O)[C@@H](C)[C@H](O)[C@@H](C)C(=O)[C@@H](C)[C@H](O)[C@@H](C)/C=C/C(=O)O[C@@H]2[C@H](C)[C@H](CC1)O[C@]1(CC[C@H](C)[C@H](C[C@@H](C)O)O1)[C@H]2C [oligomycin],Permeability to FITC-dextran,bEnd.3 BBB model,doubled
B1,Effect on B-to-A CoQ10 efflux,[8],inhibited the B-to-A efflux
same,Effect on “net” transport of CoQ10,[1]; control bEnd.3,“net” +ve transport toward the brain side (A to B)
same,Effect on “net” transport of CoQ10,[1]; [9],enhanced “net” +ve transport toward the brain side
same,"Apical to Basal CoQ10 transport, % of control",[1]; [9],164 % of control
